Measurements as given in patent US20240217951A1, “PCSK9 INHIBITORS AND METHODS OF USE THEREOF” (AstraZeneca AB, priority 2022, published 2024).

Key:
PCSK9 = PCSK9 (Homo sapiens, UniProt Q8NBP7, G670E/V474I); assay: biochemical
[1] = biological target: GSK3β (Glycogen synthase kinase-3 beta) (Homo sapiens, UniProt P49841); assay: Assay 6 - GSK3β assay (ThermoFisher Z-Lyte); type: biochemical; details: geometric mean; ATP Conc: 10 μM; read-out: Assay 6 (GSK3β FRET-Z-Lyte CR) GMean IC50 (μM) ATP Conc: 10
Procedure, shortened: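 Z-Lyte fluorescence kinase assay with 0.22-0.92 ng GSK3β and 2 μM Ser/Thr 09 peptide in 50 mM HEPES pH 7.5, 10 mM MgCl2, 1 mM EGTA, 0.01% BRIJ-35. Kinase reaction 60 min at room temperature, then 60 min development. 10-point 3-fold titration from 10 μM in 1% DMSO, fitted to a sigmoidal dose-response curve.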

[2] = biological target: T1, potassium ion channel hERG (human Ether-á-go-go-Related Gene) (Homo sapiens, UniProt Q12809); assay: Assay 5 - hERG assay (SyncroPatch 384PE patch clamp, CHO cells); type: cell-based; details: geometric mean; CHO cells over-expressing hERG; read-out: Assay 5 (hERG Hu CHO IF EPh CR-Syncro) GMean IC50
T1 construct: expressed in transfected cells; host or cells: Chinese hamster ovary K1 (CHO)
Procedure, shortened: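 Automated high-throughput patch clamp on CHO-K1 cells overexpressing hERG at room temperature, KF/KCl internal with escin, NMDG-containing external at pH 7.4. Six-point cumulative compound addition, 0.33% DMSO final; wells kept only with seal >30 MΩ, Z′ >0.4 and current >0.2 nA.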

GSK3β (Glycogen synthase kinase-3 beta), sequence (P49841 whole entry): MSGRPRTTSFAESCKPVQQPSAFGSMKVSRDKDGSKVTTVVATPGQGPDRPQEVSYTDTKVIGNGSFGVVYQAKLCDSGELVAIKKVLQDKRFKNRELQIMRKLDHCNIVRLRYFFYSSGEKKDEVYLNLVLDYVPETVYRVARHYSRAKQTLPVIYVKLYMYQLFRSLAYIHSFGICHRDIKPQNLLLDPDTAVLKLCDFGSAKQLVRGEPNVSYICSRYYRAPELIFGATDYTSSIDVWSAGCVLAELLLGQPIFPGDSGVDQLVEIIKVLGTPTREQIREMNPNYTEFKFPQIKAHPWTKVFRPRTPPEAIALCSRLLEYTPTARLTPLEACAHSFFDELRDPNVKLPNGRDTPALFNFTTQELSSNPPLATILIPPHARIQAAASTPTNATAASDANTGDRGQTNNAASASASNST
T1 sequence (Q12809 whole entry): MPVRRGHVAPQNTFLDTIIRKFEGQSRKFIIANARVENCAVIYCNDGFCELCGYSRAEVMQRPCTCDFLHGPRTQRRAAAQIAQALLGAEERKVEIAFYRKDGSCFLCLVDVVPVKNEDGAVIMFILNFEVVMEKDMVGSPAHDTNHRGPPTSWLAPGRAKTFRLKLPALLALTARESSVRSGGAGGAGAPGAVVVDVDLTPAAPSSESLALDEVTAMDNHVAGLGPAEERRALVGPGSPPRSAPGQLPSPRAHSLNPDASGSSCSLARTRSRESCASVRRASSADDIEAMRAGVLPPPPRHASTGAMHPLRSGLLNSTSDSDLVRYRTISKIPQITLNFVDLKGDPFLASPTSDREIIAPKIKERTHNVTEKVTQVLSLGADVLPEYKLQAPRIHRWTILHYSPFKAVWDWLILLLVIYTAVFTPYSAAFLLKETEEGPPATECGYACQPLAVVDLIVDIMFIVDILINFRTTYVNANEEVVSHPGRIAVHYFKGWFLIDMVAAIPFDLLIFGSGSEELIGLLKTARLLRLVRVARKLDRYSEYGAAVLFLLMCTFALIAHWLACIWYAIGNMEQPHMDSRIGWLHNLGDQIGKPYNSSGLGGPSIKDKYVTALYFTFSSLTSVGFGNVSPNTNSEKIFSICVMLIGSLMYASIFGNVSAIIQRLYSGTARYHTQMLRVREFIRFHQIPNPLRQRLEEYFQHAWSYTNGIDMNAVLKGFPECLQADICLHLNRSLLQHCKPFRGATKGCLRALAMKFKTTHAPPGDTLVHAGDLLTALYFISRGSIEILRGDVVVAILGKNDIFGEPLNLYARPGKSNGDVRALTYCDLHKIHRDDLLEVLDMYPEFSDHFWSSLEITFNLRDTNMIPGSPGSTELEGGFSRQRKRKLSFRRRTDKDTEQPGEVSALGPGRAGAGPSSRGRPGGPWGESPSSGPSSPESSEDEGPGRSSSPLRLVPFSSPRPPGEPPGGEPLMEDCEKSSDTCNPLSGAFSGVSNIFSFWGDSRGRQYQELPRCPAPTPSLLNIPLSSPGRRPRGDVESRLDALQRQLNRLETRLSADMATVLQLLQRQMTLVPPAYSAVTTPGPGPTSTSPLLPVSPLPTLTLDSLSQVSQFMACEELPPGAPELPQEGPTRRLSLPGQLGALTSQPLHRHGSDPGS
PCSK9, sequence (Q8NBP7 with tags, fused parts or gaps V474I/G670E): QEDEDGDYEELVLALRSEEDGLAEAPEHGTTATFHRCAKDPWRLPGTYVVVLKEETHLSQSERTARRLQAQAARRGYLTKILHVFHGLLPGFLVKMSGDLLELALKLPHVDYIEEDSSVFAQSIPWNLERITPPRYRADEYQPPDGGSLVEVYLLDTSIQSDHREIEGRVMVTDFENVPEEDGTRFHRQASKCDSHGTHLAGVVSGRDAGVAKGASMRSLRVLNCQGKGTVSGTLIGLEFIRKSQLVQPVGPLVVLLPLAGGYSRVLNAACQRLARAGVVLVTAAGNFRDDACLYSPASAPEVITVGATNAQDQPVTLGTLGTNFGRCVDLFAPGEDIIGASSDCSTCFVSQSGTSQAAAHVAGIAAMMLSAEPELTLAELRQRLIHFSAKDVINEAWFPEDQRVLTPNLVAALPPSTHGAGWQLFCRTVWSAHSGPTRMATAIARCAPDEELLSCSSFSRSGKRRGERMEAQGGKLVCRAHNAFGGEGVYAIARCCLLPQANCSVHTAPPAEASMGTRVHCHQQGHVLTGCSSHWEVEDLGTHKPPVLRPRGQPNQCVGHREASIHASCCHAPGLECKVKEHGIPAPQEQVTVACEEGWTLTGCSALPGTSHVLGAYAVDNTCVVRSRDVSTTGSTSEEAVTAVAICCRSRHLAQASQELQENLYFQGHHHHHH

| Structure (SMILES) | IC50 (PCSK9) [µM] | IC50 [1] [µM] | IC50 [2] [µM] |
| --- | --- | --- | --- |
| Cc1cnc(N[C@H]2CC[C@H](Nc3ccc(-n4c(=O)n(C)c5cccnc54)cn3)C2)cn1 [Example 42, 1-Methyl-3-(6-(((1S,3S)-3-((5-methylpyrazin-2-yl)amino)cyclopentyl)amino)pyridin-3-yl)-1,3-dihydro-2H-imidazo[4,5-b]pyridin-2-one] | 0.0058 | > 10 | > 40 |
| Cc1cnc(N[C@H]2CC[C@H](Nc3ccc(-n4c(=O)n(C)c5ccccc54)cn3)C2)cn1 [Example 45, 1-Methyl-3-(6-(((1S,3S)-3-((5-methylpyrazin-2-yl)amino)cyclopentyl)amino)pyridin-3-yl)-1,3-dihydro-2H-benzo[d]imidazol-2-one] | 0.0015 | > 10 | 23.1 |
| Cc1cnc(N[C@H]2CC[C@H](Nc3ccc(-n4cccc(C#N)c4=O)cn3)C2)cn1 [Example 103, 6′-(((1S,3S)-3-((5-Methylpyrazin-2-yl)amino)cyclopentyl)amino)-2-oxo-2H-[1,3′-bipyridine]-3-carbonitrile] | 0.0057 | > 10 | > 40.1 |
| Cc1cnc(N[C@H]2CC[C@H](Nc3ccc(-n4cccc(Cl)c4=O)cn3)C2)cn1 [Example 47, 3-Chloro-6′-(((1S,3S)-3-((5-methylpyrazin-2-yl)amino)cyclopentyl)amino)-2H-[1,3′-bipyridin]-2-one] | 0.0021 | > 10 | > 40 |
| COc1cccn(-c2ccc(N[C@H]3CC[C@H](Nc4cnc(C5CC5)cn4)C3)nc2)c1=O [Example 106, 6′-(((1S,3S)-3-((5-Cyclopropylpyrazin-2-yl)amino)cyclopentyl)amino)-3-methoxy-2H-[1,3′-bipyridin]-2-one] | 0.0045 | > 10 | > 40 |
| COc1ccnn(-c2ccc(N[C@H]3CC[C@H](Nc4cnc(C)cn4)C3)nc2)c1=O [Example 226, 4-Methoxy-2-(6-(((1S,3S)-3-((5-methylpyrazin-2-yl)amino)cyclopentyl)amino)pyridin-3-yl)pyridazin-3 (2H)-one] | 0.004 | > 10 | > 40.1 |
| COc1cccn(-c2ccc(N[C@H]3CC[C@H](Nc4cnc(C)cn4)C3)nc2)c1=O [Example 36, 3-Methoxy-6′-(((1S,3S)-3-((5-methylpyrazin-2-yl)amino)cyclopentyl)amino)-2H-[1,3′-bipyridin]-2-one] | 0.0041 | > 10 | > 40 |
| Cn1c(=O)n(-c2ccc(N[C@H]3CC[C@H](Nc4cnc(OC(F)F)cn4)C3)nc2)c2ccccc21 [Example 82, 1-(6-(((1S,3S)-3-((5-(Difluoromethoxy)pyrazin-2-yl)amino)cyclopentyl)amino)pyridin-3-yl)-3-methyl-1,3-dihydro-2H-benzo[d]imidazol-2-one] | 0.0025 | > 10 | 5.5 |
| Cn1c(=O)n(-c2ccc(N[C@H]3CC[C@H](Nc4cnc(Cl)cn4)C3)nc2)c2ccccc21 [Example 27, 1-(6-(((1S,3S)-3-((5-Chloropyrazin-2-yl)amino)cyclopentyl)amino)pyridin-3-yl)-3-methyl-1,3-dihydro-2H-benzo[d]imidazol-2-one] | 0.0017 | > 10 | 6.35 |
| Cc1cccn(-c2ccc(N[C@H]3CC[C@H](Nc4cnc(Cl)cn4)C3)nc2)c1=O [Example 24, 6′-(((1S,3S)-3-((5-Chloropyrazin-2-yl)amino)cyclopentyl)amino)-3-methyl-2H-[1,3′-bipyridin]-2-one] | 0.0043 | > 10 | 20.5 |
| COc1cccn(-c2ccc(N[C@H]3CC[C@H](Nc4cnc(OC(F)F)cn4)C3)nc2)c1=O [Example 94, 6′-(((1S,3S)-3-((5-(Difluoromethoxy)pyrazin-2-yl)amino)cyclopentyl)amino)-3-methoxy-2H-[1,3′-bipyridin]-2-one] | 0.0077 | > 10 | 17.5 |
| O=c1ccc(-c2ccc(F)cc2)cn1-c1ccc(N[C@H]2CC[C@H](Nc3cnc(Cl)cn3)C2)nc1 [Example 32, 6′-(((1S,3S)-3-((5-Chloropyrazin-2-yl)amino)cyclopentyl)amino)-5-(4-fluorophenyl)-2H-[1,3′-bipyridin]-2-one] | 0.0079 | > 10 | 3.5 |
| O=c1ccc2ccccc2n1-c1ccc(N[C@H]2CC[C@H](Nc3cnc(Cl)cn3)C2)nc1 [Example 35, 1-(6-(((1S,3S)-3-((5-Chloropyrazin-2-yl)amino)cyclopentyl)amino)pyridin-3-yl)quinolin-2 (1H)-one] | 0.002 | > 10 | 4.7 |
| Cc1cnc(N[C@H]2CC[C@H](Nc3ccc(-n4c(=O)ccc5cccnc54)cn3)C2)cn1 [Example 37, 1-(6-(((1S,3S)-3-((5-Methylpyrazin-2-yl)amino)cyclopentyl)amino)pyridin-3-yl)-1,8-naphthyridin-2(1 H)-one] | 0.0065 | > 10 | > 40 |
| O=C(O)c1ccc(=O)n(-c2ccc(N[C@H]3CC[C@H](Nc4cnc(Cl)cn4)C3)nc2)c1 [Example 33, 6′-(((1S,3S)-3-((5-Chloropyrazin-2-yl)amino)cyclopentyl)amino)-2-oxo-2H-[1,3′-bipyridine]-5-carboxylic acid] | 0.012 | > 10 | > 40 |
| Cc1cnc(N[C@H]2CC[C@H](Nc3ccc(-n4cccc(C)c4=O)cn3)C2)cn1 [Example 44, 3-Methyl-6′-(((1S,3S)-3-((5-methylpyrazin-2-yl)amino)cyclopentyl)amino)-2H-[1,3′-bipyridin]-2-one] | 0.0055 | > 10 | > 40 |
| Cc1cnc(N[C@H]2CC[C@H](Nc3ccc(-n4c(=O)[nH]c5ccccc54)cn3)C2)cn1 [Example 46, 1-(6-(((1S,3S)-3-((5-Methylpyrazin-2-yl)amino)cyclopentyl)amino)pyridin-3-yl)-1,3-dihydro-2H-benzo[d]imidazol-2-one] | 0.003 | > 10 | 33 |
